According to ChEMBL document CHEMBL1132499, “NMR-based discovery of phosphotyrosine mimetics that bind to the Lck SH2 domain” (Bioorg Med Chem Lett, 1999):

biological target: Tyrosine-protein kinase Lck (Homo sapiens, UniProt P06239); assay: Binding affinity against Lck SH2 domain
Sequence (P06239 whole entry, the tested form may be a part): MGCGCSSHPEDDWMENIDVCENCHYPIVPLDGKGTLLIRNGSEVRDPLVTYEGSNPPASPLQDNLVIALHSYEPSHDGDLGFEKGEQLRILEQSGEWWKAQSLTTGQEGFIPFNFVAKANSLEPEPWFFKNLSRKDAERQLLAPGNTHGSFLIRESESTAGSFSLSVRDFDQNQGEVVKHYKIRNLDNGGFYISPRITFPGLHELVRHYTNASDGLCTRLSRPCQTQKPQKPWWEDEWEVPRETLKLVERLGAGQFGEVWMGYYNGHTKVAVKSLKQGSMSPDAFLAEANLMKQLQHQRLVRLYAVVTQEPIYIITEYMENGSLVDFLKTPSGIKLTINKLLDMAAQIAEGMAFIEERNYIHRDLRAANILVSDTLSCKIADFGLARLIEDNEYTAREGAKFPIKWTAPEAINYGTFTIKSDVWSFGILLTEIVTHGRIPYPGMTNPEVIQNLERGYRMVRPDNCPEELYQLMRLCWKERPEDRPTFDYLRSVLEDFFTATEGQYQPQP

Q: How did the Kd turn out when CCOC(=O)C(Cc1ccc(OP(=O)(O)O)cc1)NC(C)=O (stereo not given) was run?
A: Its Kd is 0.3 mM.

Q: With O=P(O)(O)c1cccc2ccccc12 as the compound, how does the Kd read?
A: Its Kd is 1.5 mM.

Q: Which Kd does the source give for Cc1cc(C)nc(NC(=O)c2cc(C(=O)O)c(C(=O)Nc3cc(C)cc(C)n3)cc2C(=O)O)c1 here?
A: Its Kd is 0.06 mM.

Q: For Cc1nccn1C(=O)c1ccccc1C(=O)O, which Kd is on record?
A: The Kd was 1.6 mM.

Q: O=C(O)Cc1ccccc1 [PHENYLACETIC ACID] was tested. Which Kd did it give?
A: The Kd was greater than 50 mM.

Q: How did the Kd turn out when Cc1ccccc1CP(=O)(O)O was run?
A: The Kd was 1 mM.

Q: Which Kd does the source give for O=P(O)(O)Cc1cccc2ccccc12 here?
A: Its Kd is 1 mM.

Q: With CCCN(CCC)C(=O)c1ccccc1C(=O)O as the compound, how does the Kd read?
A: The Kd was 1.7 mM.

Q: O=P(O)(O)Oc1ccccc1 [PHENYL DIHYDROGEN PHOSPHATE] was tested. Which Kd did it give?
A: The Kd was 0.3 mM.

Q: Which Kd does the source give for O=P(O)(O)Oc1cccc2ccccc12 here?
A: Its Kd is 0.2 mM.

Q: O=C(O)c1ccccc1C(=O)n1ccnc1 was tested. Which Kd did it give?
A: The Kd was 1.3 mM.

Q: For O=P(O)(O)Cc1ccccc1 [BENZYLPHOSPHONIC ACID], which Kd is on record?
A: Its Kd is 5.9 mM.

Q: With NC(Cc1ccc(OP(=O)(O)O)cc1)C(=O)O (stereo not given) as the compound, how does the Kd read?
A: Its Kd is 0.4 mM.

Q: O=C(O)c1ccccc1C(=O)O [PHTHALIC ACID] was tested. Which Kd did it give?
A: The Kd was 1.7 mM.

Q: How did the Kd turn out when O=C(O)c1cc(C(=O)O)cc(C(=O)O)c1 was run?
A: The Kd was 0.2 mM.
